One data set has as its target T1, trypsin (Bos taurus, UniProt P00760).
T1 sequence (P00760 24-246): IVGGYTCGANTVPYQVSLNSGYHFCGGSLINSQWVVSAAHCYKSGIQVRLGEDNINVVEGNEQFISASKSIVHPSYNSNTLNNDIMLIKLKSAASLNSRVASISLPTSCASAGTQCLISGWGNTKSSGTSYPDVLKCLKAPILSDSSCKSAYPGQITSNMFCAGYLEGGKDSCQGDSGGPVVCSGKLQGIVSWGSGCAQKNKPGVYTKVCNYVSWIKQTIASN
Briefly: Inhibitory activity on trypsin in vitro (hydrolysis of p-tosylarginine methyl ester). The class given is biochemical. The following applies: trypsin 0.5 μg, 37° C., 30 minutes, read-out: 50% Inhibition Concentration (molar concentration), Anti-Trypsin. How it is done:
The inhibitory activities on trypsin and plasmin in vitro were determined by the methods of M. Muramatsu et al. described in the Journal of Biochemistry, 58, 214 (1965) for trypsin, and ibid., 57, 402 (1964) for plasmin, and the results are shown in Table 1
^(1) The concentration of the compounds represented by the general
formula (I) at which the activity of trypsin 0.5 μg to hydrolyze
ptosylarginine methyl ester was 50% inhibited, when treated at 37°

The target in data set [1] is T2, plasmin (Homo sapiens, UniProt P00747).
T2 construct: from tissue; host or cells: human euglobulin (plasma fraction), with streptokinase added
T2 sequence (P00747 581-810 limits assumed): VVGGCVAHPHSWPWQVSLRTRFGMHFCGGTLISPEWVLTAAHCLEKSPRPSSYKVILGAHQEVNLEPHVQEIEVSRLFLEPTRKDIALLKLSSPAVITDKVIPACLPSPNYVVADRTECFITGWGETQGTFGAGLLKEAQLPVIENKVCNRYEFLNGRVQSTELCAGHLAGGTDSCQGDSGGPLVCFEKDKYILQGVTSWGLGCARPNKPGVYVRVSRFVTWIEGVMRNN
T2 sequence (P00747 97-580 limits assumed): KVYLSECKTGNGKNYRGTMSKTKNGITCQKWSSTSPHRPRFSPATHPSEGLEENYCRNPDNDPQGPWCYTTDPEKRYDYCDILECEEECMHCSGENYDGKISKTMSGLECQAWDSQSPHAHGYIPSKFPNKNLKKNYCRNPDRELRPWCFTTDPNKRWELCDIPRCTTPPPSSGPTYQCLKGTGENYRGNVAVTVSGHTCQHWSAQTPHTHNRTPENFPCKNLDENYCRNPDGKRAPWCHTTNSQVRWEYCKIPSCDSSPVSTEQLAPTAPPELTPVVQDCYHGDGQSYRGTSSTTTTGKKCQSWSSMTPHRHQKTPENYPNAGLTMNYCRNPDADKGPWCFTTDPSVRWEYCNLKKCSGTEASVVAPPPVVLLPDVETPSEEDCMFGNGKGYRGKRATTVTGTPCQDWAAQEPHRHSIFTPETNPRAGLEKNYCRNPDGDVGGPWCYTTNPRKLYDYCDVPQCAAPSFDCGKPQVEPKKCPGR
Briefly: Inhibitory activity on plasmin in vitro (euglobulin/streptokinase/fibrinogen system). In kind it is biochemical. Conditions: human euglobulin, streptokinase, fibrinogen, borate saline buffer pH 7.4, 37° C., 30 minutes; read-out: 50% Inhibition Concentration (molar concentration), Anti-Plasmin.
Protocol: ^(2) The concentration of the compounds represented by the general
formula (I) at which the activity of plasmin was 50% inhibited, when
reacted in a system comprising 0.1 ml of humaneuglobulin (10 fold
dilution), 0.1 ml of streptokinase (2,000 unit/ml), 0.4 ml of fibrinogen
(4% solution), 0.3 ml of a 0.1M borate saline buffer solution (pH 7.4) an
0.1 ml of a solution of each of the compounds at 37° C. for 30

Another data set in a line: Solubility in water. The class given is physicochemical.
The subject of data set [2] is plasmin. Conditions: prior art; cited from earlier work.

Structures are written as SMILES. Where a name gives a salt, the structure may show the parent alone.

Data on 3 molecules can be found in patent publication US4310533A, “Guanidinobenzoic acid derivatives” (Ono Pharmaceutical Co., Ltd., priority 1979, dated 1982).

On to `CS(=O)(=O)O.N=C(N)Nc1ccc(C(=O)Oc2ccc(C(=O)OCC(=O)N3CCCCC3)cc2)cc1` [Compound No. 1, piperidinocarbonylmethyl 4-(4-guanidinobenzoyloxy)benzoate mesylate], for which the IC50 on trypsin stood at 0.5 nM; at plasmin [1], 0.45 nM. The solubility in “Solubility in water” is 20 mM.

With `N=C(N)Nc1ccc(C(=O)Oc2ccc(C(=O)OCC(=O)NC3CCCCC3)cc2)cc1` [Compound No. 2, N-cyclohexylcarbamoylmethyl 4-(4-guanidinobenzoyloxy)benzoate mesylate], the IC50 at trypsin was determined as 0.18 nM; on plasmin [1] it was 0.13 nM. Besides, the solubility in the data set “Solubility in water” was found to be 20 mM.

Turning to `NC[C@H]1CC[C@H](C(=O)O)CC1` [Compound No. 3, trans-4-aminomethylcyclohexanecarboxylic acid], the “anti-plasmin activity (in words)” value in the data set on plasmin [2] is “relatively low activities”.
